This note sets out measurements from patent US20200190592A1, “PME-1 AS A BIOMARKER TO PREDICT AND DIAGNOSE AN INCREASED RISK OF ENDOMETRIAL CANCER AND GENE SILENCING OF PME-1 TO INHIBIT EPITHELIAL TO MESENCHYMAL TRANSITION” (Medical Diagnostic Laboratories, L.L.C., priority 2018, published 2020).

For data set [1], the system named is phospho-Akt. The data set is described as follows: Western analysis of Akt phosphorylation in RL95-2 cells. To be noted: PME-1 knocked down. Format: cell-based, human. Here is the method: We observed a similar trend for the Akt signaling pathway. There was an increase in phosphorylation of Akt on threonine 308 (T308) when PME-1 was over-expressed compared to control. There was a decrease in phosphorylation of Akt when PME-1 was knocked down (FIG. 18B). PME-1 over-expression specifically increases the phosphorylation of Akt on T308, but not serine 473 (S473). Importantly, when cells were incubated with upstream inhibitors of Akt phosphorylation (LY294002), there was a decrease in the phospho-forms (FIGS. 18A and 18B), as expected.
15 μg of protein was used for western analysis. PME-1 antibody (Santa Cruz) and COXIV (Cell Signaling Technologies) were used for detection of proteins and the blots were developed using chemiluminescence (Pierce ECL Western Blotting Substrate—Thermo Scientific) on the GE ImageQuant LAS 4000. For analysis of Akt, ERK, and β-catenin signaling in tissue culture, western analyses were completed as follows. RL95-2 cells stably infected with lentivirus expressing constructs were selected with puromycin (Invivogen). The cells were incubated with either 50 μM Akt inhibitor (LY 294002, Cell Signaling Technologies) or 40 μM ERK inhibitor (V0126, Cell Signaling Technologies) for 1-2 hours at 37° C. 1.5× Laemelli buffer (0.5 M Tris pH6.8, […], 10% sodium dodecyl sulfate, 100 mM EDTA) was used to prepare cell lysates. […]

Data set [2] deals with PPME1. The data set can be described thus: qRT-PCR of PPME1 (PME-1) expression in RL95-2 cells. Format: cell-based, human. The following applies: RL95-2, normalized to 18S, vs shSCR. Here is the method: In this study, we transfected RL95-2 cells to express empty vector (Control), over-expressing PME-1 (+PME-1) or expressing shRNA against PME-1 (−PME-1) followed by serum starvation for 24 hours. Afterwards, either vehicle or TGF-β treatment was performed at the end of the 24 hours. TGF-β was used to induce cells to initiate the EMT program. Gene expression analysis was conducted using quantitative real-time PCR.
Using RL95-2 endometrial cancer cells, we overexpressed PME-1 (FIG. 21A) or depleted PME-1 with shRNA (FIG. 21B) and confirmed that PME-1 was appropriately expressed.
Total RNA was extracted with Qiagen RNAEasy kit from RL95-2 cells. cDNA was synthesized using 500 ng-1 μg of RNA and SuperScript VILO c-DNA mix (Life Technologies). Taqman probes and PCR-mix were purchased from Life Technologies. All samples were run in triplicates. Results are representative of three independent experiments in which genes of interest were normalized to the house-keeping gene, 18S or GAPDH, where fold-change was calculated using the ddCt method.
For orientation: Quantitative PCR measures a nucleic acid by following its amplification.

Turning to “shPPME1 no. 2: shRNA targeting PPME1, SEQ ID NO: 2: GCAGCGATTATTAGTAGAGTT, bp 289-309; used for all subsequent experiments (guide GCAGCGATTATTAGTAGAGTT; listed as Homo sapiens)”, the “phosphorylation of Akt” value in data set [1] is reported as “decrease”. The PME-1 knocked down in data set [2] is listed as more than 50%.
